Values of other authors in patent publication US9066965B1, “Purified limonin glucoside for prevention and treatment of chronic diseases” (The United States of America, as represented by the …, priority 2012, dated 2015).

Experiments:
[1] = purified flavonoids, hypercholesterolemic men and women; cited from earlier work
[2] = molecular target: T1, TGRS (Homo sapiens, UniProt Q8TDU6); conditions: cited from earlier work
T1 sequence (Q8TDU6 1-330): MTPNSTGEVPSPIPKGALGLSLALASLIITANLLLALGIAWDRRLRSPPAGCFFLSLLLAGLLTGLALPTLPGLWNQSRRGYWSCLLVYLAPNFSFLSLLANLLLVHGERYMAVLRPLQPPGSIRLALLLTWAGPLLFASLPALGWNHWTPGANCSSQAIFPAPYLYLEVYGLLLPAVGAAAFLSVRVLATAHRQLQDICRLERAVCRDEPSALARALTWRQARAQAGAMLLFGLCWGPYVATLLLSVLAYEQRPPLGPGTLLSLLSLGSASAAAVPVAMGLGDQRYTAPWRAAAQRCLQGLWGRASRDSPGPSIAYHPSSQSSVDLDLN

[3] = test system: Hep G2 cell line; conditions: cited from earlier work
[4] = 0.2% in diet, mice fed high fat diets; cited from earlier work

## COc1ccc([C@@H]2CC(=O)c3c(O)cc(O[C@@H]4O[C@H](CO[C@@H]5O[C@@H](C)[C@H](O)[C@@H](O)[C@H]5O)[C@@H](O)[C@H](O)[C@H]4O)cc3O2)cc1O [hesperidin]
[1]
  effect on serum total- and LDL cholesterol: did not alter

## CC1(C)O[C@H]2CC(=O)OC[C@]23[C@H]2CC[C@@]4(C)[C@H](c5ccoc5)OC(=O)[C@H]5O[C@]54[C@]2(C)C(=O)C[C@@H]13 [limonin]
[2]
  activation of TGRS: did not activate
[3]
  Apo B secretion: significantly decreased

## C[C@@H]1O[C@@H](O[C@H]2[C@H](Oc3cc(O)c4c(c3)O[C@H](c3ccc(O)cc3)CC4=O)O[C@H](CO)[C@@H](O)[C@@H]2O)[C@H](O)[C@H](O)[C@H]1O [naringin]
[1]
  effect on serum total- and LDL cholesterol: did not alter

## CC(=O)O[C@H]1CC(=O)OC(C)(C)[C@@H]2CC(=O)[C@]3(C)[C@H](CC[C@@]4(C)[C@H](c5ccoc5)OC(=O)[C@H]5O[C@]543)[C@@]12C [nomilin]
[4]
  high fat diet induced obesity and hyperglycemia: prevented
[2]
  activation of TGRS: activating
